Here are results for 3 molecules from patent US7071203B2, “Pharmaceutically acceptable salts of 20(s)-camptothecins” (Dr. Reddy's Laboratories Limited, priority 2001, dated 2006).

The structures appear in SMILES notation. Counter-ions that a name gives are not always drawn. Like-named read-outs stand apart in the source and are kept apart here. Bounds are passed on as bounds.

One data set relates to SF-268. The data set is described as follows: Sulforhodamine B growth inhibition, CNS cell line SF-268. The class given is cell-based, human. The conditions noted are these: CNS: SF-268, 48 h; for GI50: Homo sapiens, read-out: Growth Inhibition (GI 50). As for the experimental part: (§1) Each test compound was screened against a battery of cell lines representing eight different types of cancers. In a typical procedure, 1×10^4 cells were seeded into each well of 96 well plate in 100 μL volume of RPMI 1640 medium containing antibiotics and 10% FCS.
(§2) The plates were incubated at 37° C. in presence of CO2. After 24 h, test compounds were evaluated at five 10-fold dilutions ranging from 100 to 0.01 μM. To each test well 100 μL of test compound solution was added and medium with vehicle was added to control wells and the plates were further incubated. After 48 h of incubation, plates were terminated by Sulforhodamine B method.
(§3) The optical density, which is proportional to protein mass, is then read by automated spectrophotometric plate reader at a wavelength of 515 nm. Readings were transferred to a microcomputer and mean 50% Growth Inhibition (GI50) and mean Total Growth Inhibition were calculated.

In a further data set the test system is OVCAR-8. The data set is described as follows: Sulforhodamine B growth inhibition, ovarian cell line OVCAR-8. Type of data set: cell-based, human. The note with it: OVARIAN: OVCAR-8, 48 h; for GI50: Homo sapiens, read-out: Growth Inhibition (GI 50). On the procedure:
as §1, §2, §3

The test system of the next data set is MCF-7/ADR. The data set is described as follows: Sulforhodamine B growth inhibition, breast cell line MCF-7/ADR. The note with it: 48 h; for GI50: Homo sapiens, NCI/ADR-RES, read-out: Growth Inhibition (GI 50). The class given is cell-based, human. On the procedure:
as §1, §2, §3

The subject of a further data set is DU-145. The data set is described as follows: Sulforhodamine B growth inhibition, prostate cell line DU-145. Type of data set: cell-based, human. The note with it: for GI50: Homo sapiens, read-out: Growth Inhibition (GI 50). As for the experimental part:
as §1, §2, §3

For the next data set, the system named is ACHN. The data set is described as follows: Sulforhodamine B growth inhibition, renal cell line ACHN. The class given is cell-based, human. The note with it: 48 h; for GI50: Homo sapiens, read-out: Growth Inhibition (GI 50). As for the experimental part:
as §1, §2, §3

The test system of a further data set is HOP-62. The data set is described as follows: Sulforhodamine B growth inhibition, lung cell line HOP-62. The conditions noted are these: LUNG: HOP-62, 48 h; for GI50: Homo sapiens, read-out: Growth Inhibition (GI 50). Type of data set: cell-based, human. On the procedure: as §1, §2, §3
A further data set deals with UACC-62. The data set is described as follows: Sulforhodamine B growth inhibition, melanoma cell line UACC-62. Type of data set: cell-based, human. The note with it: for GI50: Homo sapiens, read-out: Growth Inhibition (GI 50). As for the experimental part:
as §1, §2, §3

For another data set, the system named is U251. The data set is described as follows: Sulforhodamine B growth inhibition, CNS cell line U251. The class given is cell-based, human. On the procedure:
as §1, §2, §3

For the next data set, the system named is SKOV-3. The data set is described as follows: Sulforhodamine B growth inhibition, ovarian cell line SKOV-3. The class given is cell-based, human. On the procedure:
as §1, §2, §3

The test system of another data set is PA-1. The data set is described as follows: Sulforhodamine B growth inhibition, ovarian cell line PA-1. Type of data set: cell-based, human. The conditions noted are these: OVARIAN: PA-1, 48 h. As for the experimental part: as §1, §2, §3
In the next data set the test system is MCF 7. In words: Sulforhodamine B growth inhibition, breast cell line MCF 7. Type of data set: cell-based, human. On the procedure: as §1, §2, §3
The next data set concerns PC-3. The data set is described as follows: Sulforhodamine B growth inhibition, prostate cell line PC-3. Type of data set: cell-based, human. The note with it: PROSTATE: PC-3, 48 h. On the procedure: as §1, §2, §3
The test system of the next data set is A 498. In words: Sulforhodamine B growth inhibition, renal cell line A 498. Type of data set: cell-based, human. On the procedure: as §1, §2, §3
In a further data set the test system is H 522. The data set is described as follows: Sulforhodamine B growth inhibition, lung cell line H 522. Type of data set: cell-based, human. On the procedure:
as §1, §2, §3

In a further data set the test system is SW-620. The data set is described as follows: Sulforhodamine B growth inhibition, colon cell line SW-620. The class given is cell-based, human. The conditions noted are these: COLON: SW-620, 48 h. As for the experimental part:
as §1, §2, §3

Data set [1] can be described thus: Single dose oral pharmacokinetic studies. Type of data set: in vivo, Male Swiss Albino Mice. On the procedure: Male Swiss Albino Mice (20–30 g) were used in the experiments. The animals were maintained under standard laboratory conditions and had free access to feed and water ad libitum. Before experimentation animals were fasted overnight (˜15 h) during which they had free access to water ad libitum.
An amount equivalent to 10 mg of drug was weighed accurately and transferred into a clean mortar and triturated to obtain a fine powder. To this 500 μl of DMSO (10%) was added to obtain a clear solution. To this 4.5 ml of sodium carboxy methyl cellulose (sodium CMC) was added to make up the volume to 5 ml. Based on the animal weight appropriate volume (body weight in grams×10=no. of μl of dose to be given) of the prepared solution was administered through oral gavage.
After dosing, at designated time points (0.5, 1, 2, 3, 5, 8 and 12 h) 100 μl of blood was collected from retro orbital plexus into 0.5 ml eppendorff tubes containing EDTA (5 μl of 200 mg/ml solution in Milli Q water). Blood was centrifuged at 12,800 rpm for 2 min and plasma was separated and immediately taken for analysis, without delay, in order to estimate both lactone and carboxylate forms of the compound.
50 μl plasma was transferred into a clean 2 ml micro centrifuge tube. To this ice cold methanol was added (450 μl) and vertex mixed for 15 sec to extract the compound. These contents were centrifuged for 2 min at 12,800 rpm dry centrifuge tube. Clear supernatant was separated in to a 300 μl of auto sampler vial maintained at 4° C. and 20 μl of this was injected into HPLC column. HPLC Conditions:
HPLC system (Shimadzu) consisted of system controller (SCL-10AVP), Isocratic pump (LC-10ATVP), auto sampler (SIL-10ADVP), fluorescence detector (RF-10AXL) and column oven at 25° C. (CTO-1OASVP) was controlled by Class-VP software. Sample was eluted through column (Supelcosil-LC318, 5μ, 4.6×250 mm, 300° A) with mobile phase [1% TEAA (pH=5.5):Acetonitrile:MeOH::80:15:5) pumped at 1.0 ml/min flow rate and eluent was detected using fluorescence detector set at Ex. 370 nm/Em. 537 nm. The approx. RTs were carboxylate (CA1=4.1 min, CA2=4.8 min) and lactone (LA1=7.9 min, LA2=11.6 min).
For the determination of drug concentration, peak area ratios of the drug to internal standard versus the concentration (range: 0.05–10 μg/ml) for both carboxylate and lactone forms were plotted separately and linear regression was applied using software “Sigma Plot” (Jandel Scientific version, 2.0, USA). Correlation coefficients (r^2) of 0.99 or better were obtained.
Pharmacokinetic parameters were calculated for both carboxylate and lactone forms separately by non-compartmental model analysis. The peak plasma concentration (Cmax) and the corresponding time (Tmax) were directly obtained from the raw data. The area under the plasma concentration versus time curve up to the last quantifiable time point, AUC(0-t) was obtained by the linear and log-linear trapezoidal summation. The AUC(0-t) extrapolated to infinity (i.e., AUC (0-∞)) by adding the quotient of Clast/Kel, where Clast represents the last measurable time concentration and Kel represents the apparent terminal rate constant. Kel was calculated by the linear regression of the log-transformed concentrations of the drug in the terminal phase. The half-life of the terminal elimination phase was obtained using the relationship t1/2=0.693/ Kel.

The mark [2] stands for this setting: BREAST: MCF-7/ADR, Sulforhodamine B.
[3] abbreviates: PROSTATE: DU-145, 48 h, Sulforhodamine B.
The mark [4] stands for this setting: MELANOMA: UACC-62, 48 h, Sulforhodamine B.
Where [5] appears, read: Homo sapiens, read-out: Growth Inhibition (GI 50).
The mark [6] stands for this setting: Lactone, single oral dose, mice, plasma, n = 3.
[7] abbreviates: male, Swiss Albino, mouse, in vivo, po.

On to `CC[C@@]1(O)C(=O)OCc2c1cc1n(c2=O)C(O)c2cc3c(CN(C)C)c(O)ccc3nc2-1` (stereo partly drawn) [Example 1, 10-Hydroxy-9-N,N-dimethylaminomethyl-5-hydroxy-20(S)-camptothecin hydrochloride], for which the “Total Growth Inhibition (TGI)” value was 90.0 µM in the data set on SF-268; more than 100 µM in the data set on OVCAR-8; 0.9 µM in the data set on MCF-7/ADR (setting [2]); 0.8 µM with DU-145 (setting [3]); 1.0 µM in the data set on ACHN; 25.0 µM in the data set on HOP-62. The “Total Growth Inhibition (TGI)” value with UACC-62 (setting [4]) is 4.5 µM. For the same molecule, the GI50 in the data set with SF-268 amounted to 0.55 µM; in the data set on OVCAR-8 it was 0.5 µM; in the data set on MCF-7/ADR, 0.25 µM; with DU-145 (DU-145, 48 h), 0.4 µM; in the data set on ACHN, 0.4 µM; with HOP-62 it was 0.6 µM. The GI50 in the data set with UACC-62 (UACC-62, 48 h) came out at 0.7 µM.

Turning to `CC[C@@]1(O)C(=O)OCc2c1cc1n(c2=O)C(OCCO)c2cc3c(CN(C)C)c(O)ccc3nc2-1` (stereo partly drawn) [Example 2, 10-Hydroxy-9-N,N-dimethylaminomethyl-5-(2′-hydroxyethoxy)-20(S)-camptothecin hydrochloride], the “Total Growth Inhibition (TGI)” value was more than 100 µM in the data set with SF-268; 80.0 µM in the data set with OVCAR-8; 50.0 µM in the data set on MCF-7/ADR (setting [2]); 25.0 µM with DU-145 (setting [3]); 40.0 µM in the data set with ACHN; more than 100 µM in the data set with HOP-62. The “Total Growth Inhibition (TGI)” value in the data set on UACC-62 (setting [4]) worked out at 6.0 µM. The GI50 with SF-268 is 7.5 µM; in the data set on OVCAR-8 it was 1 µM; in the data set on MCF-7/ADR, 7.5 µM; in the data set with DU-145 (DU-145, 48 h), 5.5 µM; with ACHN, 4 µM; in the data set with HOP-62, 8 µM. Besides, the GI50 in the data set with UACC-62 (UACC-62, 48 h) was 6 µM.

Usually AUC(0-inf) stands for the area under the concentration-time curve extrapolated to infinity. The low end stands for low exposure, the high end for high exposure. As a reminder, the AUC(0-t) is the area under the concentration-time curve up to a stated or last time point. Low values mean low exposure, high ones high exposure. A word on the Tmax: it is the time at which the peak concentration occurs. In the case of `CC[C@@]1(O)C(=O)OCc2c1cc1n(c2=O)C(OCCF)c2cc3c(CN(C)C)c(O)ccc3nc2-1` (stereo partly drawn) [Example 3, 10-Hydroxy-9-N,N-dimethylaminomethyl-5-(2′-fluoroethoxy)-20(S)-camptothecin hydrochloride], the “Total Growth Inhibition (TGI)” value with MCF-7/ADR (setting [2]) was more than 100 µM; with DU-145 (setting [3]), more than 100 µM; in the data set on UACC-62 (setting [4]), 8.0 µM; in the data set with U251 (48 h), more than 100 µM; with SKOV-3 (OVARIAN: SKOV-3, 48 h), 40.0 µM; in the data set on PA-1, 5.0 µM. Moreover, the “Total Growth Inhibition (TGI)” value in the data set on MCF 7 (BREAST: MCF 7, 48 h) is 10.0 µM; in the data set on PC-3 it was more than 100 µM; with A 498 (RENAL: A 498, 48 h), 15.0 µM; with H 522 (LUNG: H 522, 48 h), 90.0 µM; in the data set with SW-620 it was more than 100 µM. Also, the GI50 in the data set on MCF-7/ADR (setting [2]) was 8 µM; in the data set on DU-145 (setting [3]) it was 4 µM; in the data set on UACC-62 (setting [4]) it was 1.5 µM; in the data set on U251 (Homo sapiens, U-251, 48 h, read-out: Growth Inhibition (GI 50)), 1.5 µM; in the data set on SKOV-3 (Homo sapiens, SK-OV-3, OVARIAN: SKOV-3, 48 h, read-out: Growth Inhibition (GI 50)) it was 6 µM; with PA-1 (setting [5]), 1 µM. The GI50 with MCF 7 (Homo sapiens, MCF7, BREAST: MCF 7, 48 h, read-out: Growth Inhibition (GI 50)) worked out at 7.5 µM; in the data set with PC-3 (setting [5]), 9 µM; in the data set with A 498 (Homo sapiens, A498, RENAL: A 498, 48 h, read-out: Growth Inhibition (GI 50)), 0.7 µM; in the data set on H 522 (Homo sapiens, NCI-H522, LUNG: H 522, 48 h, read-out: Growth Inhibition (GI 50)), 0.9 µM; with SW-620 (setting [5]) it was 60 µM. Besides, in data set [1] (setting [6]), the Kel was 0.19 h⁻¹. For the same molecule, the “T1/2β(4,6,8h)^@” value in data set [1] (setting [6]) came to 422 min. This molecule yielded an AUC(0-inf) in data set [1] (setting [7]) of 9.74 µM·h. This molecule gave an AUC(0-t) in data set [1] (setting [7]) of 6.1 µM·h. Also, the “AUC(0–t)” value in data set [1] (setting [7]) was 11.05 µM·h. In data set [1] (setting [7]), the “AUC(0–∞)” value is 15.14 µM·h. Moreover, in data set [1] (setting [7]), the Tmax turned out to be 15 min.
